Assay results reported in patent publication US20160158200A1, “Combinations of Hepatitis C Virus Inhibitors” (priority 2013, published 2016).

Test system: HCV genotype-1a variant with glutamine 30 changed to glutamate in the NS5A protein
Assay type: cell-based
Conditions: test compound titrated with BMS-790052 fixed at 200 nM; genotype 1a Q30E replicon
Procedure, shortened: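 Synergy was assessed by combining several fixed amounts of an NS5A-targeting compound with a titration of the second compound of interest.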

In the case of `CC1(C)C2CCC(C(=O)N[C@H](c3nc(-c4ccc(-c5ccc(-c6c[nH]c([C@@H](NC(=O)C78CCC(C7)C(C)(C)C8O)C(C)(C)C)n6)cc5)cc4)c[nH]3)C(C)(C)C)(C2)C1O` (single isomer, unassigned) [Compound Y-107], the “Fold-Synergistic 1a (Q30E)” value is reported as over 100 fold.

In the case of `CC(C)[C@H](NC(=O)[C@@H]1Cc2ccccc21)c1ncc(-c2ccc(-c3ccc(-c4cnc([C@@H](NC(=O)[C@@H]5Cc6ccccc65)C(C)C)[nH]4)cc3)cc2)[nH]1` [Compound P-110], the “Fold-Synergistic 1a (Q30E)” value is reported as over 100 fold.

With `CC(C)(C)[C@H](NC(=O)C1CCC(F)(F)CC1)c1ncc(-c2ccc(-c3ccc(-c4ccc5nc([C@@H](NC(=O)C6CCC(F)(F)CC6)C(C)(C)C)[nH]c5c4)cc3)cc2)[nH]1` [Compound B56] the “Fold-Synergistic 1a (Q30E)” value was over 100 fold.

With `CCNC(=O)NC1(C(=O)N[C@H](c2nc(-c3ccc(-c4ccc(-c5c[nH]c([C@@H](NC(=O)C6(NC(=O)NCC)CCCCC6)C(C)(C)C)n5)cc4)cc3)c[nH]2)C(C)(C)C)CCCCC1` [Compound W-251] the “Fold-Synergistic 1a (Q30E)” value was over 100 fold.

`CC(C)(C)[C@H](NC(=O)[C@@]1(C)CCC(F)(F)CO1)c1ncc(-c2ccc(C34CCC(c5cnc([C@@H](NC(=O)[C@@]6(C)CCC(F)(F)CO6)C(C)(C)C)[nH]5)(CC3)CC4)cc2)[nH]1` [Compound B-186, (R)—N—((S)-1-(5-(4-(4-(2-((S)-1-((R)-5,5-difluoro-2-methyltetrahydro-2H-pyran-2-carboxamido)-2,2-dimethylpropyl)-1H-imidazol-5-yl)bicyclo[2.2.2]octan-1-yl)phenyl)-1H-imidazol-2-yl)-2,2-dimethylpropyl)-5,5-difluoro-2-methyltetrahydro-2H-pyran-2-carboxamide] was tested, and the “Fold-Synergistic 1a (Q30E)” value was over 100 fold.

With `COC(=O)NC(C(=O)NC(c1ncc(-c2ccc(-c3ccc(-c4cnc(C5CCCN5C(=O)C(NC(=O)OC)C(C)C)[nH]4)cc3)cc2)[nH]1)C(C)(C)C)C(C)C` (stereo not drawn) [Compound B-194] the “Fold-Synergistic 1a (Q30E)” value was under 10 fold.

In the case of `CC(C)(C(=O)N[C@H](c1nc(-c2ccc(-c3ccc(-c4cnc([C@@H](NC(=O)C(C)(C)C5CCCO5)C(C)(C)C)[nH]4)cc3)cc2)c[nH]1)C(C)(C)C)C1CCCO1` (single isomer, unassigned) [Compound B-169], the “Fold-Synergistic 1a (Q30E)” value is reported as over 100 fold.

With `C[C@H]1CCN(C(=O)C(=O)N2C(C)(C)CCCC2(C)C)C1c1nc(-c2ccc(-c3ccc(-c4c[nH]c(C5[C@@H](C)CCN5C(=O)C(=O)N5C(C)(C)CCCC5(C)C)n4)cc3)cc2)c[nH]1` (stereo partly drawn) [Compound W-249] the “Fold-Synergistic 1a (Q30E)” value was over 100 fold.

`Cc1cc(CC(=O)N[C@H](c2ncc(-c3ccc(-c4ccc(-c5cnc([C@@H](NC(=O)Cc6cc(C)no6)C(C)C)[nH]5)cc4)cc3)[nH]2)C(C)C)on1` [Compound P-76] was tested, and the “Fold-Synergistic 1a (Q30E)” value was over 10 fold.

In the case of `CC(C)(C)[C@H](NC(=O)[C@H]1C[C@@H]2CC(F)(F)C[C@@H]2C1)c1nc(-c2ccc(-c3ccc(-c4c[nH]c([C@@H](NC(=O)[C@H]5C[C@@H]6CC(F)(F)C[C@@H]6C5)C(C)(C)C)n4)cc3)cc2)c[nH]1` [Compound P-42], the “Fold-Synergistic 1a (Q30E)” value is reported as over 100 fold.

`CC(C)(C)[C@H](NC(=O)C1CC12CCOCC2)c1ncc(-c2ccc(-c3ccc(-c4cnc([C@@H](NC(=O)C5CC56CCOCC6)C(C)(C)C)[nH]4)cc3)cc2)[nH]1` (single isomer, unassigned) [Compound B70] was tested, and the “Fold-Synergistic 1a (Q30E)” value was over 100 fold.

With `COC(C)(CCO)C(=O)N[C@H](c1nc(-c2ccc(-c3ccc(-c4c[nH]c([C@@H](NC(=O)C(C)(CCO)OC)C(C)(C)C)n4)cc3)cc2)c[nH]1)C(C)(C)C` (single isomer, unassigned) [Compound W-259] the “Fold-Synergistic 1a (Q30E)” value was over 100 fold.

In the case of `CC1([C@H](NC(=O)C2CCC(F)(F)CC2)c2ncc(-c3ccc(-c4ccc(-c5cnc([C@@H](NC(=O)C6CCC(F)(F)CC6)C6(C)CC6)[nH]5)cc4)cc3)[nH]2)CC1` [Compound Y-34], the “Fold-Synergistic 1a (Q30E)” value is reported as over 100 fold.

In the case of `CC(C)[C@H](NC(=O)C(C)(C)C)c1nc(-c2ccc(-c3ccc(-c4c[nH]c([C@@H](NC(=O)C(C)(C)C)C(C)C)n4)c(F)c3)cc2)c[nH]1.O=C(O)C(F)(F)F` [Compound N-89], the “Fold-Synergistic 1a (Q30E)” value is reported as over 100 fold.

In the case of `CC(C)(C)[C@H](NC(=O)C1CC12CCOCC2)c1ncc(-c2ccc(-c3ccc(-c4cnc([C@@H](NC(=O)C5CC56CCOCC6)C(C)(C)C)[nH]4)cc3)cc2)[nH]1` (single isomer, unassigned) [Compound B72], the “Fold-Synergistic 1a (Q30E)” value is reported as over 100 fold.

In the case of `CC(C)[C@H](NC(=O)/C=C/c1ccccc1)c1ncc(-c2ccc(-c3ccc(-c4cnc([C@@H](NC(=O)/C=C/c5ccccc5)C(C)C)[nH]4)cc3)cc2)[nH]1` [Compound S-43], the “Fold-Synergistic 1a (Q30E)” value is reported as over 100 fold.

With `CC(C)(C)OC(=O)N1CCC(C(=O)N[C@H](c2nc(-c3ccc(-c4ccc(-c5c[nH]c([C@@H](NC(=O)C6CCN(C(=O)OC(C)(C)C)CC6)C(C)(C)C)n5)cc4)cc3)c[nH]2)C(C)(C)C)CC1` [Compound S-264] the “Fold-Synergistic 1a (Q30E)” value was over 100 fold.

With `CN(C(=O)C(=O)N[C@H](c1nc(-c2ccc(-c3ccc(-c4c[nH]c([C@@H](NC(=O)C(=O)N(C)C5CC5)C(C)(C)C)n4)cc3)cc2)c[nH]1)C(C)(C)C)C1CC1` [Compound W-50] the “Fold-Synergistic 1a (Q30E)” value was over 100 fold.

In the case of `CC(C)(C)[C@H](NC(=O)C1(CO)CCCO1)c1nc(-c2ccc(-c3ccc(-c4c[nH]c([C@@H](NC(=O)C5(CO)CCCO5)C(C)(C)C)n4)cc3)cc2)c[nH]1` (single isomer, unassigned) [Compound Y-111], the “Fold-Synergistic 1a (Q30E)” value is reported as over 100 fold.

`CC1(C(=O)N[C@H](c2ncc(-c3ccc(-c4ccc(-c5cnc([C@@H](NC(=O)C6(C)CCC(F)(F)CC6)C6(C)CC6)[nH]5)cc4)cc3)[nH]2)C2(C)CC2)CCC(F)(F)CC1` [Compound P-133] was tested, and the “Fold-Synergistic 1a (Q30E)” value was over 100 fold.

With `CC(C)(C)[C@H](NC(=O)[C@@]1(C)CCC(F)(F)CO1)c1nc(-c2ccc(-c3ccc(-c4c[nH]c([C@@H]5CCCN5C(=O)c5nccc6c(Cl)cccc56)n4)cc3)cc2)c[nH]1` [Compound Y-85, (R)—N—((S)-1-(4-(4′-(2-((S)-1-(5-chloroisoquinoline-1-carbonyl)pyrrolidin-2-yl)-1H-imidazol-4-yl)-[1,1′-biphenyl]-4-yl)-1H-imidazol-2-yl)-2,2-dimethylpropyl)-5,5-difluoro-2-methyltetrahydro-2H-pyran-2-carboxamide] the “Fold-Synergistic 1a (Q30E)” value was over 100 fold.

For `CC(C)[C@H](NC(=O)C(C)(C)O)c1ncc(-c2ccc(-c3ccc(-c4cnc([C@@H](NC(=O)C(C)(C)O)C(C)C)[nH]4)cc3)cc2)[nH]1` [Compound P-71], the “Fold-Synergistic 1a (Q30E)” value was over 100 fold.

For `CCN(CC)C(=O)C(=O)N[C@H](c1nc(-c2ccc(-c3ccc(-c4c[nH]c([C@@H](NC(=O)C(=O)N(CC)CC)C(C)(C)C)n4)cc3)cc2)c[nH]1)C(C)(C)C` [Compound W-33], the “Fold-Synergistic 1a (Q30E)” value was over 100 fold.

For `CC(C)[C@H](NC(=O)[C@@]1(C)CCC(F)(F)CO1)c1nc(-c2ccc3c(c2)CCc2cc(-c4c[nH]c([C@@H](NC(=O)[C@@]5(C)CCC(F)(F)CO5)C(C)C)n4)ccc2-3)c[nH]1` [Compound N-131], the “Fold-Synergistic 1a (Q30E)” value was over 100 fold.

In the case of `COC(=O)C12CCC(C(=O)N[C@H](c3nc(-c4ccc(-c5ccc(-c6c[nH]c([C@@H](NC(=O)C78CCC(C(=O)OC)(CC7)CC8)C(C)(C)C)n6)cc5)cc4)c[nH]3)C(C)(C)C)(CC1)CC2` [Compound W-127], the “Fold-Synergistic 1a (Q30E)” value is reported as over 100 fold.

With `CC(C)[C@H](NC(=O)C1CCOCC1)c1ncc(-c2ccc(-c3ccc(-c4cnc([C@@H](NC(=O)C5CCOCC5)C(C)C)[nH]4)cc3)cc2)[nH]1` [Compound P-59] the “Fold-Synergistic 1a (Q30E)” value was over 100 fold.

In the case of `CC(C)(C)C(=O)NC(c1nc(-c2ccc(-c3ccc(-c4c[nH]c(C(NC(=O)C(C)(C)C)C5(C(F)(F)F)CC5)n4)cc3)cc2)c[nH]1)C1(C(F)(F)F)CC1` (single isomer, unassigned) [Compound N-107B], the “Fold-Synergistic 1a (Q30E)” value is reported as over 10 fold.

In the case of `Cc1ccc(CC(=O)N[C@H](c2ncc(-c3ccc(-c4ccc(-c5cnc([C@@H](NC(=O)Cc6ccc(C)cc6)C(C)C)[nH]5)cc4)cc3)[nH]2)C(C)C)cc1` [Compound S-42], the “Fold-Synergistic 1a (Q30E)” value is reported as over 100 fold.

In the case of `CC(C)(C)OC(=O)N1CCCC[C@H]1C(=O)N[C@H](c1nc(-c2ccc(-c3ccc(-c4c[nH]c([C@@H](NC(=O)[C@@H]5CCCCN5C(=O)OC(C)(C)C)C(C)(C)C)n4)cc3)cc2)c[nH]1)C(C)(C)C` [Compound L-17], the “Fold-Synergistic 1a (Q30E)” value is reported as over 100 fold.

In the case of `CC(C)(C)[C@H](NC(=O)[C@@](C)(O)c1ccccc1)c1nc(-c2ccc(-c3ccc(-c4c[nH]c([C@@H](NC(=O)[C@@](C)(O)c5ccccc5)C(C)(C)C)n4)cc3)cc2)c[nH]1` [Compound L-95], the “Fold-Synergistic 1a (Q30E)” value is reported as over 100 fold.

`CC(C)[C@H](NC(=O)C(C)(C)N1C[C@@H](C)O[C@@H](C)C1)c1nc(-c2ccc(-c3ccc(-c4c[nH]c([C@@H](NC(=O)C(C)(C)N5C[C@@H](C)O[C@@H](C)C5)C(C)C)n4)cc3)cc2)c[nH]1` [Compound W-161] was tested, and the “Fold-Synergistic 1a (Q30E)” value was over 100 fold.

`CC(C)(C)OC(=O)NC1(C(=O)N[C@H](c2nc(-c3ccc(-c4ccc(-c5c[nH]c([C@@H](NC(=O)C6(NC(=O)OC(C)(C)C)CC6(F)F)C(C)(C)C)n5)cc4)cc3)c[nH]2)C(C)(C)C)CC1(F)F` (single isomer, unassigned) [Compound W-15] was tested, and the “Fold-Synergistic 1a (Q30E)” value was over 100 fold.

In the case of `CC(C)(C)C(=O)N[C@H](c1nc2ccc(-c3ccc(-c4ccc5nc([C@@H](NC(=O)C(C)(C)C)C(C)(C)C)[nH]c5c4)cc3)cc2[nH]1)C(C)(C)C.O=C(O)C(F)(F)F` [Compound B33], the “Fold-Synergistic 1a (Q30E)” value is reported as over 100 fold.

With `COC(=O)N[C@H](Cc1ccccc1)C(=O)N[C@H](c1ncc(-c2ccc(-c3ccc(-c4cnc([C@@H](NC(=O)[C@@H](Cc5ccccc5)NC(=O)OC)C(C)C)[nH]4)cc3)cc2)[nH]1)C(C)C` [Compound P-106] the “Fold-Synergistic 1a (Q30E)” value was over 100 fold.

For `CC(C)[C@H](NC(=O)C1(C(F)(F)F)CCCC1)c1ncc(-c2ccc(-c3ccc(-c4cnc([C@@H](NC(=O)C5(C(F)(F)F)CCCC5)C(C)C)[nH]4)cc3)cc2)[nH]1` [Compound P-80], the “Fold-Synergistic 1a (Q30E)” value was over 100 fold.

`CC(C)(C)[C@H](NC(=O)C1CCC(F)(F)CC1)c1ncc(C#Cc2ccc(C#Cc3cnc([C@@H](NC(=O)C4CCC(F)(F)CC4)C(C)(C)C)[nH]3)cc2)[nH]1` [Compound B60] was tested, and the “Fold-Synergistic 1a (Q30E)” value was over 100 fold.
